Legend:
wild buckwheat (POLCO) = experiment: Test 23 growth chamber, postemergence; format: in vivo, Polygonum convolvulus; conditions: 21 DAA
Protocol: A test was conducted to evaluate the effects on winter barley (HORVW, Hordeum vulgare L.), winter wheat (TRZAW, Triticum aestivum L.), and several weed species of mixtures of Compound 2 with the commercial herbicides (2,4-dichlorophenoxy)acetic acid (2,4-D) and (4-chloro-2-methylphenoxy)acetic acid (MCPA), auxin mimics. […] Plants were treated postemergence at the 2-4 leaf growth stage, and each treatment was replicated three times. […] Plants were watered as needed. […] Results are means of the three replicates.

wild chamomile (MATCH) = experiment: Test 21 growth chamber, postemergence; format: in vivo, Matricaria chamomilla; conditions: 19 DAA
Protocol: A test was conducted to evaluate the effects on winter barley (HORVW, Hordeum vulgare L.), winter wheat (TRZAW, Triticum aestivum L.), and several weed species, of mixtures of Compound 2 with the commercial herbicide (2,4-dichlorophenoxy)acetic acid (2,4-D), an auxin mimic. […] Plants were treated postemergence at the 2-4 leaf growth stage, and each treatment was replicated one time. […] Plants were watered as needed. […] Results are from single replicates.

winter barley (HORVW) = experiment: Test 20 growth chamber, postemergence; format: in vivo, Hordeum vulgare; conditions: 25 DAA
Protocol: A test was conducted to evaluate the effects on winter barley (HORVW, Hordeum vulgare L.) and winter wheat (TRZAW, Triticum aestivum L.) of mixtures of Compound 2 with the commercial herbicides (2,4-dichlorophenoxy)acetic acid (2,4-D) and (4-chloro-2-methylphenoxy)acetic acid (MCPA), auxin mimics. […] Plants were treated postemergence at the 2-leaf growth stage, and each treatment was replicated a total of four times (three times in the loam/sand blend and one time in RediEarth). […] Plants were watered as needed. […] Results are the means of the four replicates.

[1] = system: smallflower buttercup (RANAB); experiment: Test 9 field trial, emerged weeds before corn planting; format: in vivo, Ranunculus abortivus; conditions: g a.i./ha: Cpd 2 100, Glyphosate 1540, Paraquat 1150
Protocol: (§1) Corn seeds (hybrid ‘Pioneer 34M91 RR’) were planted in mid spring season, about 3.8 cm deep in a silty clay loam soil having a pH of 6.7. Plots were 9.1 m long by 3.0 m. The field was managed using no-till practices. […] Compound 2 and paraquat treatments, alone and in combination, also included a surfactant. Glyphosate, alone and with Compound 2, included ammonium sulfate in the treatment mixture. […] The effects on the weeds in the treated plots and untreated control plots were recorded 7, 14, 23, 30 and 57 days after application. Most of the weed species could not be evaluated at every timing. Corn response was only evaluated 57 days after application. […] Results are the means of the three replicates.

[2] = system: ladysthumb smartweed (POLPE); experiment: Test 14 field trial, preemergence, growth as percent of control; format: in vivo, Polygonum persicaria
Text: Corn seeds (hybrid ‘Pioneer 31G96 RR’) were planted in mid spring season, 3.8 cm deep in a clay loam soil having 2% organic matter and a pH of 6.6. Plots were 6.1 m long by 3.0 m wide with rows spaced 76 cm apart. Seeds were spaced 15 cm apart within the rows. The field was managed using conventional tillage practices. […] Yellow nutsedge was only evaluated 19 and 28 days after application, and ivyleaf morningglory could only be evaluated 28 days after application. […] Results are the means of the three replicates. This growth inhibition data was converted to results in the form of “plant growth as a percent of control plant growth” using the calculation “100 minus growth inhibition”. […] For “growth as a percent of control” data, Colby's Equation calculates the expected additive effect of herbicidal mixtures having two active ingredients as follows:
Ga+b=GaGb/100 • wherein Ga+b is the growth as a percent of control of plants treated with the mixture expected from additive contribution of the individual components, • Ga is the observed growth as a percent of control of plants treated with the first active ingredient at the same use rate as in the mixture, and • Gb is the observed growth as a percent of control of plants treated with the second active ingredient at the same use rate as in the mixture. For mixtures having three active ingredients, Colby's Equation to calculate the expected additive effect of herbicidal mixtures is as follows:
Ga+b+c=GaGbGc/10,000 • wherein Ga and Gb are as defined above and • Ga+b+c is the growth as a percent of control of plants treated with the mixture expected from additive contribution of the individual components, and • Gc is the observed growth as a percent of control of plants treated with the third active ingredient at the same use rate as in the mixture. When these two forms of Colby's Equation are used, if the observed effects on weeds are less than the expected values, the mixture is synergistic.

common chickweed (STEME) = experiment: Test 9 field trial, emerged weeds before corn planting; format: in vivo, Stellaria media; conditions: g a.i./ha: Cpd 2 100, Glyphosate 1540, Paraquat 1150
Protocol: as §1

jimsonweed (DATST) = experiment: Test 7 field trial, preemergence; format: in vivo, Datura stramonium
Protocol: (§2) Plots were 7.6 m long by 3.0 m wide with rows spaced 76 cm apart. Seeds were spaced 15 cm apart within the rows. The field was managed using conventional tillage practices. […] Wild radish was evaluated 14 and 28 days after application. […] Results are the means of the three replicates.

morningglory (IPOSS) = experiment: Test 7 field trial, preemergence; format: in vivo, Ipomoea L. spp.
Protocol: as §2

[3] = 2,4-D or MCPA alone 250 g a.i./ha

O=C(O)COc1ccc(Cl)cc1Cl [2,4-D, (2,4-dichlorophenoxy)acetic acid]
Postemergence POLCO Obs (wild buckwheat (POLCO); [3]): 58
Postemergence MATCH Obs (wild chamomile (MATCH); 2,4-D alone 125 g a.i./ha): 40
Postemergence MATCH Obs (wild chamomile (MATCH); 2,4-D alone 250 g a.i./ha): 45
Postemergence HORVW Obs (winter barley (HORVW); [3]): 26

COC(=O)c1nc(C2CC2)nc(N)c1Cl [Compound 2, methyl 6-amino-5-chloro-2-cyclopropyl-4-pyrimidinecarboxylate]
RANAB Obs ([1]; 7 DAA): 45%
RANAB Obs ([1]; 14 DAA): 40%
RANAB Obs ([1]; 23 DAA): 60%
RANAB Obs ([1]; 30 DAA): 65%
Obs growth % of control ([2]; 19 DAA, 75 g a.i./ha): 88%
Obs growth % of control ([2]; 19 DAA, 100 g a.i./ha): 77%
Obs growth % of control ([2]; 28 DAA, 75 g a.i./ha): 45%
Obs growth % of control ([2]; 28 DAA, 100 g a.i./ha): 58%
Obs growth % of control ([2]; 56 DAA, 75 g a.i./ha): 75%
Obs growth % of control ([2]; 56 DAA, 100 g a.i./ha): 80%
Postemergence POLCO Obs (wild buckwheat (POLCO); Cpd 2 alone 4 g a.i./ha): 48
Postemergence POLCO Obs (wild buckwheat (POLCO); Cpd 2 alone 8 g a.i./ha): 53
Postemergence POLCO Obs (wild buckwheat (POLCO); Cpd 2 alone 16 g a.i./ha): 55
STEME Obs (common chickweed (STEME); 7 DAA): 22%
STEME Obs (common chickweed (STEME); 14 DAA): 13%
STEME Obs (common chickweed (STEME); 23 DAA): 3%
STEME Obs (common chickweed (STEME); 30 DAA): 0%
STEME Obs (common chickweed (STEME); 57 DAA): 0%
DATST Obs (jimsonweed (DATST); 14 DAA, 125 g a.i./ha): 98%
DATST Obs (jimsonweed (DATST); 14 DAA, 250 g a.i./ha): 98%
DATST Obs (jimsonweed (DATST); 14 DAA, 500 g a.i./ha): 100%
DATST Obs (jimsonweed (DATST); 28 DAA, 125 g a.i./ha): 98%
DATST Obs (jimsonweed (DATST); 28 DAA, 250 g a.i./ha): 98%
DATST Obs (jimsonweed (DATST); 28 DAA, 500 g a.i./ha): 100%
DATST Obs (jimsonweed (DATST); 62 DAA, 125 g a.i./ha): 100%
DATST Obs (jimsonweed (DATST); 62 DAA, 500 g a.i./ha): 100%
Postemergence MATCH Obs (wild chamomile (MATCH); Cpd 2 alone 16 g a.i./ha): 60
Postemergence HORVW Obs (winter barley (HORVW); Cpd 2 alone 4 g a.i./ha): 26
Postemergence HORVW Obs (winter barley (HORVW); Cpd 2 alone 8 g a.i./ha): 33
Postemergence HORVW Obs (winter barley (HORVW); Cpd 2 alone 16 g a.i./ha): 44
IPOSS Obs (morningglory (IPOSS); 14 DAA, 125 g a.i./ha): 100%
IPOSS Obs (morningglory (IPOSS); 14 DAA, 250 g a.i./ha): 100%
IPOSS Obs (morningglory (IPOSS); 14 DAA, 500 g a.i./ha): 100%
IPOSS Obs (morningglory (IPOSS); 28 DAA, 125 g a.i./ha): 100%
IPOSS Obs (morningglory (IPOSS); 28 DAA, 250 g a.i./ha): 100%
IPOSS Obs (morningglory (IPOSS); 28 DAA, 500 g a.i./ha): 100%
IPOSS Obs (morningglory (IPOSS); 62 DAA, 125 g a.i./ha): 100%
IPOSS Obs (morningglory (IPOSS); 62 DAA, 500 g a.i./ha): 100%

O=C(O)CNCP(=O)(O)O [Glyphosate]
RANAB Obs ([1]; 7 DAA): 50%
RANAB Obs ([1]; 14 DAA): 80%
RANAB Obs ([1]; 23 DAA): 95%
RANAB Obs ([1]; 30 DAA): 100%
STEME Obs (common chickweed (STEME); 7 DAA): 42%
STEME Obs (common chickweed (STEME); 14 DAA): 84%
STEME Obs (common chickweed (STEME); 23 DAA): 93%
STEME Obs (common chickweed (STEME); 30 DAA): 100%
STEME Obs (common chickweed (STEME); 57 DAA): 99%

CCc1cccc(C)c1N(C(=O)CCl)[C@@H](C)COC [S-Metolachlor, S-metolachlor, reference compound]
Obs growth % of control ([2]; 19 DAA, 1870 g a.i./ha): 100%
Obs growth % of control ([2]; 28 DAA, 1870 g a.i./ha): 53%
DATST Obs (jimsonweed (DATST); 14 DAA, 1000 g a.i./ha): 65%
DATST Obs (jimsonweed (DATST); 28 DAA, 1000 g a.i./ha): 57%
DATST Obs (jimsonweed (DATST); 62 DAA, 1000 g a.i./ha): 0%
IPOSS Obs (morningglory (IPOSS); 14 DAA, 1000 g a.i./ha): 48%
IPOSS Obs (morningglory (IPOSS); 28 DAA, 1000 g a.i./ha): 50%
IPOSS Obs (morningglory (IPOSS); 62 DAA, 1000 g a.i./ha): 13%

— patent US20100285959A1, “HERBICIDAL MIXTURES” (priority 2006, published 2010)
